Patent US10781204B2, “TYK2 inhibitors and uses thereof” (Nimbus Lakshmi, Inc., priority 2015, dated 2020)

Assays:
JAK2 = JAK2 (Homo sapiens (Human), UniProt O60674); assay: JAK2 radioactive kinase assay; type: biochemical; details: ATP 10 μM
Description: (§1) Peptide substrate, [KKSRGDYMTMQIG], (20 μM) is prepared in reaction buffer (20 mM Hepes pH 7.5, 10 mM MgCl2, 1 mM EGTA, 0.02% Brij35, 0.02 mg/mL BSA, 0.1 mM […], 2 mM DTT, 1% DMSO. TYK2 (Invitrogen) kinase is added, followed by compounds in DMSO. ^33PATP is added to initiate the reaction with ATP at 10 μM. Kinase reaction is incubated for 120 min at room temp and reactions are spotted onto P81 ion exchange paper (Whatman #3698-915), and then washed extensively in 0.75% phosphoric acid, prior to reading the radioactivity counts. For JAK2 (Invitrogen) kinase assay the peptide substrate poly[Glu:Tyr] (4:1), 0.2 mg/ml is used, in the reaction carried out the same as for TYK2.

TYK2 = TYK2 (Homo sapiens (Human), UniProt P29597); assay: Tyk2 radioactive kinase assay; type: biochemical; details: ATP 10 μM
TYK2, sequence (P29597 whole entry): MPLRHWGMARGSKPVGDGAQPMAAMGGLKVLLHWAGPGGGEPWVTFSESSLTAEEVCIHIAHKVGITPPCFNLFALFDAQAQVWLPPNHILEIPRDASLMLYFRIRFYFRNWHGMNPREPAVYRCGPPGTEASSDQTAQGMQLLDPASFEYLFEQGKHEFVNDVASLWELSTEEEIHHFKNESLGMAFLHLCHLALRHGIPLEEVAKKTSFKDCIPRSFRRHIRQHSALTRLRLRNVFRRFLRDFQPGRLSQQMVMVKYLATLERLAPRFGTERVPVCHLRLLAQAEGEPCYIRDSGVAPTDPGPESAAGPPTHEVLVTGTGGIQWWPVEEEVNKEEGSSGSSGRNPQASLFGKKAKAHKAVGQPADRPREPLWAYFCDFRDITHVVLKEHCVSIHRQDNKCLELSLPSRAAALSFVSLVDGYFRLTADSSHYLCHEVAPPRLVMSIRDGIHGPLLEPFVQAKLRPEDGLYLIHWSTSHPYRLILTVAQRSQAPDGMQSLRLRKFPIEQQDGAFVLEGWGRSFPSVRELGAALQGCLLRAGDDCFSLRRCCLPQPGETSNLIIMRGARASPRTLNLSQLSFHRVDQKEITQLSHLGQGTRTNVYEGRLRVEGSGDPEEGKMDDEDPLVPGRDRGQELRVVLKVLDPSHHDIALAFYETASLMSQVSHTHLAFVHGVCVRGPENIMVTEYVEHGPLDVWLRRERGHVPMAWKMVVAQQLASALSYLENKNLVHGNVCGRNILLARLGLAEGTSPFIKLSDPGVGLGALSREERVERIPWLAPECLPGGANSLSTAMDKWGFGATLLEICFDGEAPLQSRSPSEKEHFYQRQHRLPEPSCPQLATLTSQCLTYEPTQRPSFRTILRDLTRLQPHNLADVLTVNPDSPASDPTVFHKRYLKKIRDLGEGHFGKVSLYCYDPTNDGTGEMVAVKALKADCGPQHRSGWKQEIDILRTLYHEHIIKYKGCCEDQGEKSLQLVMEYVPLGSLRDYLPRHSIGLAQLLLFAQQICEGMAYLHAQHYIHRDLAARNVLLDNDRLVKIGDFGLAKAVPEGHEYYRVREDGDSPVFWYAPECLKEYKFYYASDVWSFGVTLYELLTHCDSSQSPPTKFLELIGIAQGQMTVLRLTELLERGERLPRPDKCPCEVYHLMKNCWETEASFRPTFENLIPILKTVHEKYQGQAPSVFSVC
Description: as §1

[1] = tested on: Tyk2-pSTAT4 (IL-12 induced pSTAT4); assay: IL-12 induced pSTAT4 in human PBMC; type: cell-based; details: Homo sapiens, PBMC, 0.5 h, 1.7 ng/mL IL-12, 30 minutes
Description: Human PBMC are isolated from buffy coat and are stored frozen for assays as needed. Cells for assay are thawed and resuspended in complete media containing serum, then cells are diluted to 1.67 E6 cells/ml so that 120 ul per well is 200,000 cells. 15 ul of compound or DMSO is added to the well at the desired concentrations and incubated at 1 hr at 37 C. 15 ul of stimulus (final concentration of 1.7 ng/mL IL-12) is added for 30 minutes prior to pSTAT4 and total STAT4 analysis using cell lysates prepared and analyzed by MSD reagents as per manufacturer protocol. The final DMSO concentration of compound in the assay is 0.1%.

JAK2, sequence (O60674 whole entry): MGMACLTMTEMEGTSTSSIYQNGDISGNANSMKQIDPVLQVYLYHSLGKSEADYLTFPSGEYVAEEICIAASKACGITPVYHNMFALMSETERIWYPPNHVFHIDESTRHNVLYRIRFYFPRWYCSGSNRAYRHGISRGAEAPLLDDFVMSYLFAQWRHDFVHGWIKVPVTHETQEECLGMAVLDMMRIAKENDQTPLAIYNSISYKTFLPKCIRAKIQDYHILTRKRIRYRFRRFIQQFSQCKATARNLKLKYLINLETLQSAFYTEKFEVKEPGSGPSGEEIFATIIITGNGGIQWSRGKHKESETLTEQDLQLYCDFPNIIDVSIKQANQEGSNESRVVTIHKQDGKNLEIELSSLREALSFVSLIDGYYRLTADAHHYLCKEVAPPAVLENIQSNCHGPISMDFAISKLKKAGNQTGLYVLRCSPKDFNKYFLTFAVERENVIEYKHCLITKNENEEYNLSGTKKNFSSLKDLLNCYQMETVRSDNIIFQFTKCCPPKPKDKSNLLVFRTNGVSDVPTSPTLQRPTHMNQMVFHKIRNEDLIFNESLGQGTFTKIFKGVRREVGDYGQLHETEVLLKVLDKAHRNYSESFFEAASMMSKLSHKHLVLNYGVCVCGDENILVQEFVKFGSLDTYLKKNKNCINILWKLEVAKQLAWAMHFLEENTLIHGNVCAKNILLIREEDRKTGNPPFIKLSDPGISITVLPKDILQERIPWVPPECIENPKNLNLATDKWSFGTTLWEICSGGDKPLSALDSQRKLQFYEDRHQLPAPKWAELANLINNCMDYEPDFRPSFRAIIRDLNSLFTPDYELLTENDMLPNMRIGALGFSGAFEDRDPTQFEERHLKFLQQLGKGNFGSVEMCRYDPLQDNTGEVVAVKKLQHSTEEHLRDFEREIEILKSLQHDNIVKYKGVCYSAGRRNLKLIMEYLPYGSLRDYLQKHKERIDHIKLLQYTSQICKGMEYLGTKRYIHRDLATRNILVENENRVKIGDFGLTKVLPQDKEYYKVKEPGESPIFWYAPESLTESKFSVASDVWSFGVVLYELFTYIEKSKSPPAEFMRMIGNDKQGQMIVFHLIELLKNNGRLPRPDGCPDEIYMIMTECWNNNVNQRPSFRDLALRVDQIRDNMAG

Structure (SMILES)	Ki (JAK2) [nM]	Ki (TYK2) [nM]	EC50 [1] [nM]
O=C1NCc2nc(-c3c(F)cccc3F)cc(-n3ccc(N4CCOCC4)n3)c21 [I-1, 2-(2,6-difluorophenyl)-4-(3-morpholino-1H-pyrazol-1-yl)-6,7-dihydro-5H-pyrrolo[3,4-b]pyridin-5-one]	100 to 1000	0.1 to 10	
CN1CCN(c2ccn(-c3cc(-c4c(F)cccc4F)nc4c3C(=O)NC4)n2)CC1 [I-5, 2-(2,6-difluorophenyl)-4-(3-(4-methylpiperazin-1-yl)-1H-pyrazol-1-yl)-6,7-dihydro-5H-pyrrolo[3,4-b]pyridin-5-one]	100 to 1000	0.1 to 10	
CCNC(=O)Cc1ccn(-c2cc(-c3c(F)cccc3C#N)nc3c2C(=O)NC3)n1 [I-7, 2-(1-(2-(2-cyano-6-fluorophenyl)-5-oxo-6,7-dihydro-5H-pyrro-lo[3,4-b]pyridin-4-yl)-1H-pyrazol-3-yl)-N-ethylacetamide]	100 to 1000	0.1 to 10	
O=C1NCc2nc(-c3c(F)cccc3F)cc(-n3cccn3)c21 [I-58, 2-(2,6-difluorophenyl)-4-(1H-pyrazol-1-yl)-6,7-dihydro-5H-pyrrolo[3,4-b]pyridin-5-one]	100 to 1000	10 to 100	
CC(C)n1cc(-c2cc(-c3c(F)cccc3C#N)nc3c2C(=O)NC3)cn1 [I-61, 3-fluoro-2-(4-(1-isopropyl-1H-pyrazol-4-yl)-5-oxo-6,7-dihydro-5H-pyrrolo[3,4-b]pyridin-2-yl)benzonitrile]	10 to 100	0.1 to 10	100 to 2000
N#Cc1cccc(F)c1-c1cc(-n2ccc(NCCO)n2)c2c(n1)CNC2=O [I-64, 3-fluoro-2-(4-(3-((2-hydroxyethyl)amino)-1H-pyrazol-1-yl)-5-oxo-6,7-dihydro-5H-pyrrolo[3,4-b]pyridin-2-yl)benzonitrile]	10 to 100	0.1 to 10	
N#Cc1cccc(F)c1-c1cc(-n2ccc(N3CCC(N4CCCC4)CC3)n2)c2c(n1)CNC2=O [I-66, 3-fluoro-2-(5-oxo-4-(3-(4-(pyrrolidin-1-yl)piperidin-1-yl)-1H-pyrazol-1-yl)-6,7-dihydro-5H-pyrrolo[3,4-b]pyridin-2-yl)benzonitrile]	10 to 100	0.1 to 10	
CN(C)[C@H]1CC[C@H](Nc2ccn(-c3cc(-c4c(F)cccc4C#N)nc4c3C(=O)NC4)n2)CC1 [I-67, 2-(4-(3-(((1r,4r)-4-(dimethylamino)cyclohexyl)amino)-1H-pyrazol-1-yl)-5-oxo-6,7-dihydro-5H-pyrrolo[3,4-b]pyridin-2-yl)-3-fluorobenzonitrile]	10 to 100	0.1 to 10	
CS(=O)(=O)c1ccn(-c2cc(-c3c(F)cccc3C#N)nc3c2C(=O)NC3)n1 [I-81, 3-fluoro-2-(4-(3-(methylsulfonyl)-1H-pyrazol-1-yl)-5-oxo-6,7-dihydro-5H-pyrrolo[3,4-b]pyridin-2-yl)benzonitrile]	≥ 1000	10 to 100	
COCCOC1CN(c2ccn(-c3cc(-c4c(F)cccc4C#N)nc4c3C(=O)NC4)n2)C1 [I-82, 3-fluoro-2-(4-(3-(3-(2-methoxyethoxy)azetidin-1-yl)-1H-pyrazol-1-yl)-5-oxo-6,7-dihydro-5H-pyrrolo[3,4-b]pyridin-2-yl)benzonitrile]	≥ 1000	≥ 1000	
CC1(O)CCN(c2ccn(-c3cc(-c4c(F)cccc4C#N)nc4c3C(=O)NC4)n2)C1 (centres unmarked) [I-87, 3-fluoro-2-(4-(3-(3-hydroxy-3-methylpyrrolidin-1-yl)-1H-pyrazol-1-yl)-5-oxo-6,7-dihydro-5H-pyrrolo[3,4-b]pyridin-2-yl)benzonitrile]	10 to 100	0.1 to 10	
N#Cc1cccc(F)c1-c1cc(-n2ccc(CCO)n2)c2c(n1)CNC2=O [I-94, 3-fluoro-2-(4-(3-(2-hydroxyethyl)-1H-pyrazol-1-yl)-5-oxo-6,7-dihydro-5H-pyrrolo[3,4-b]pyridin-2-yl)benzonitrile]	100 to 1000	10 to 100	
CN1CC(S(=O)(=O)N2CCN(c3ccn(-c4cc(-c5c(F)cccc5C#N)nc5c4C(=O)NC5)n3)CC2)C1 [I-99, 3-fluoro-2-(4-(3-(4-((1-methylazetidin-3-yl)sulfonyl)piperazin-1-yl)-1H-pyrazol-1-yl)-5-oxo-6,7-dihydro-5H-pyrrolo[3,4-b]pyridin-2-yl)benzonitrile]	≥ 1000	≥ 1000	
N#Cc1cccc(F)c1-c1cc(-n2ccc(CC(=O)O)n2)c2c(n1)CNC2=O [I-102, 2-(1-(2-(2-cyano-6-fluorophenyl)-5-oxo-6,7-dihydro-5H-pyrrolo[3,4-b]pyridin-4-yl)-1H-pyrazol-3-yl)acetic acid]	≥ 1000	10 to 100	
C[C@@H]1CC(O)C[C@@H](C)N1c1ccn(-c2cc(-c3c(F)cccc3C#N)nc3c2C(=O)NC3)n1 (stereo partly drawn) [I-106, 3-fluoro-2-(4-(3-((2R,6R)-4-hydroxy-2,6-dimethylpiperidin-1-yl)-1H-pyrazol-1-yl)-5-oxo-6,7-dihydro-5H-pyrrolo[3,4-b]pyridin-2-yl)benzonitrile]	100 to 1000	10 to 100	
CC1(O)CN(c2ccn(-c3cc(-c4c(F)cccc4C#N)nc4c3C(=O)NC4)n2)CC[C@H]1O (stereo partly drawn) [I-108, 2-(4-(3-((4R)-3,4-dihydroxy-3-methylpiperidin-1-yl)-1H-pyrazol-1-yl)-5-oxo-6,7-dihydro-5H-pyrrolo[3,4-b]pyridin-2-yl)-3-fluorobenzonitrile]	0.1 to 10	0.1 to 10	
N#Cc1cccc(F)c1-c1cc(-n2ccc(N3CCC[C@H](O)[C@H](O)C3)n2)c2c(n1)CNC2=O [I-115, 2-(4-(3-((3R,4S)-3,4-dihydroxyazepan-1-yl)-1H-pyrazol-1-yl)-5-oxo-6,7-dihydro-5H-pyrrolo[3,4-b]pyridin-2-yl)-3-fluorobenzonitrile]	10 to 100	0.1 to 10	
N#Cc1cccc(F)c1-c1cc(-n2ccc(N3CCC(C#N)C3)n2)c2c(n1)CNC2=O (centres unmarked) [I-116, 1-(1-(2-(2-cyano-6-fluorophenyl)-5-oxo-6,7-dihydro-5H-pyrrolo[3,4-b]pyridin-4-yl)-1H-pyrazol-3-yl)pyrrolidine-3-carbonitrile]	0.1 to 10	0.1 to 10	
CN(C)[C@H]1CC[C@H](Oc2ccn(-c3cc(-c4c(F)cccc4C#N)nc4c3C(=O)NC4)n2)CC1 [I-117, 2-(4-(3-(((1r,4r)-4-(dimethylamino)cyclohexyl)oxy)-1H-pyrazol-1-yl)-5-oxo-6,7-dihydro-5H-pyrrolo[3,4-b]pyridin-2-yl)-3-fluorobenzonitrile]	10 to 100	0.1 to 10	
N#Cc1cccc(F)c1-c1cc(-n2ccc(N3CCOCC3=O)n2)c2c(n1)CNC2=O [I-138, 3-fluoro-2-(5-oxo-4-(3-(3-oxomorpholino)-1H-pyrazol-1-yl)-6,7-dihydro-5H-pyrrolo[3,4-b]pyridin-2-yl)benzonitrile]	100 to 1000	0.1 to 10	
CO[C@H]1CN(c2ccn(-c3cc(-c4c(F)cccc4C#N)nc4c3C(=O)NC4)n2)C[C@H]1O [I-143, 3-fluoro-2-(4-(3-((3R,4S)-3-hydroxy-4-methoxypyrrolidin-1-yl)-1H-pyrazol-1-yl)-5-oxo-6,7-dihydro-5H-pyrrolo[3,4-b]pyridin-2-yl)benzonitrile]	0.1 to 10	0.1 to 10	
C[C@]1(O)CN(c2ccn(-c3cc(-c4c(F)cccc4C#N)nc4c3C(=O)NC4)n2)C[C@@](C)(O)C1 [I-144, 2-(4-(3-((3S,5R)-3,5-dihydroxy-3,5-dimethylpiperidin-1-yl)-1H-pyrazol-1-yl)-5-oxo-6,7-dihydro-5H-pyrrolo[3,4-b]pyridin-2-yl)-3-fluorobenzonitrile]	100 to 1000	10 to 100	
N#Cc1cccc(F)c1-c1cc(-n2ccc(N3CCC4(CCNC4=O)C3)n2)c2c(n1)CNC2=O (centres unmarked) [I-146, 3-fluoro-2-(5-oxo-4-(3-(6-oxo-2,7-diazaspiro[4.4]nonan-2-yl)-1H-pyrazol-1-yl)-6,7-dihydro-5H-pyrrolo[3,4-b]pyridin-2-yl)benzonitrile]	10 to 100	0.1 to 10	
CO[C@@H]1CN(c2ccn(-c3cc(-c4c(F)cccc4C#N)nc4c3C(=O)NC4)n2)C[C@@H]1O [I-154, 3-fluoro-2-(4-(3-((3S,4R)-3-hydroxy-4-methoxypyrrolidin-1-yl)-1H-pyrazol-1-yl)-5-oxo-6,7-dihydro-5H-pyrrolo[3,4-b]pyridin-2-yl)benzonitrile]		0.1 to 10	30 to 100
N#Cc1cccc(F)c1-c1cc(-n2ccc(N3CC[C@H](F)[C@H](O)C3)n2)c2c(n1)CNC2=O [I-174, 3-fluoro-2-(4-(3-((3R,4S)-4-fluoro-3-hydroxypiperidin-1-yl)-1H-pyrazol-1-yl)-5-oxo-6,7-dihydro-5H-pyrrolo[3,4-b]pyridin-2-yl)benzonitrile]	10 to 100	0.1 to 10	
[2H]C([2H])([2H])O[C@H]1CN(c2ccn(-c3cc(-c4c(F)cccc4C#N)nc4c3C(=O)NC4)n2)C[C@H]1O [I-199, 3-fluoro-2-(4-(3-((3R,4S)-3-hydroxy-4-(methoxy-d3)pyrrolidin-1-yl)-1H-pyrazol-1-yl)-5-oxo-6,7-dihydro-5H-pyrrolo[3,4-b]pyridin-2-yl)benzonitrile]	10 to 100	0.1 to 10	
